From US20230114241A1, “METHODS OF TREATING EPILEPSY USING THE SAME” (Trevena, Inc., priority 2019, published 2023)

biological target: human sphingosine-1-phosphate receptor 1 (S1P1) (Homo sapiens, UniProt P21453); experiment: Inhibition of cAMP production (HTRF cAMP HiRange), S1P1 CHO-K1 cells; assay type: cell-based; conditions: inhibition of cAMP production, S1P1; read-out: hS1P1 CAMP pEC50 (converted)
Outline: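 CHO-K1 cells co-expressing human S1P1 (C-terminal ProLink tag) and EA-β-arrestin2, plated overnight; after 30 min compound incubation at 37 °C, intracellular cAMP measured by HTRF TR-FRET following 1 h at room temperature. Values normalized to fingolimod.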

Sequence of human sphingosine-1-phosphate receptor 1 (S1P1) (P21453 whole entry): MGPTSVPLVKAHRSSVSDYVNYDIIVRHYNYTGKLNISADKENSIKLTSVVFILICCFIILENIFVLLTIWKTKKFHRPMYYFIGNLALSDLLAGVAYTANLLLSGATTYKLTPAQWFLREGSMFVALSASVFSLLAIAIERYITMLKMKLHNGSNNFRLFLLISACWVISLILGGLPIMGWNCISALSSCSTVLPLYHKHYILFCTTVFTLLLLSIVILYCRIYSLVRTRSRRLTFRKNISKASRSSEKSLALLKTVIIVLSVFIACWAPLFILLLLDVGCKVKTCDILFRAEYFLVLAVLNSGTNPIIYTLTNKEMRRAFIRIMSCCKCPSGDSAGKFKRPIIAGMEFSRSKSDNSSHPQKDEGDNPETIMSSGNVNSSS

EC50, < 316 nM:
COc1cccc2oc(-c3ccc4c(c3)nnn4CC(C)C)nc12 [Compound 450, 2-(1-isobutyl-1H-benzo[d][1,2,3]triazol-5-yl)-4-methoxy-benzo[d]oxazole]
CCC1(CC)CC(=O)c2cc(-c3nc(-c4ccsc4)no3)ccc2N1 [Compound 554, 2,2-diethyl-6-(3-(thiophen-3-yl)-1,2,4-oxadiazol-5-yl)-2,3-dihydroquinolin-4(1H)-one]
Cc1ccccc1-c1coc(-c2ccc3c(c2)nnn3C(C)C)n1 [Compound 433, 5-[4-(2-methylphenyl)-1,3-oxazol-2-yl]-1-(propan-2-yl)-1H-1,2,3-benzotriazole]
CC(C)n1nnc2cc(-c3nc4c(ccc5sccc54)o3)ccc21 [Compound 457, 4-[1-(propan-2-yl)-1H-1,2,3-benzotriazol-5-yl]-5-oxa-10-thia-3-azatricyclo[7.3.0.0^2,6] dodeca-1(9),2(6),3,7,11-pentaene]
Cc1ccc2oc(-c3ccc4c(c3)nnn4CC(C)C)nc2c1 [Compound 437, 2-(1-isobutyl-1H-benzo[d][1,2,3]triazol-5-yl)-5-methyl-benzo[d]oxazole]

EC50, > 316 nM:
Cc1ccncc1-c1nc(-c2ccc3c(c2)nnn3C(C)(C)CO)no1 [Compound 625, 2-methyl-2-(5-(5-(4-methylpyridin-3-yl)-1,2,4-oxadiazol-3-yl)-1H-benzo[d] [1,2,3]triazol-1-yl)propan-1-ol]
CCC1(CC)CC(=O)c2cc(-c3nc(-c4ccc5sc(N)nc5c4)no3)ccc2O1 [Compound 446, 6-(3-(2-aminobenzo [d]thiazol-5-yl)-1,2,4-oxadiazol-5-yl)-2,2-diethylchroman-4-one]
Cc1cccc2nc(-c3ccc4c(c3)nnn4C(C)C)oc12 [Compound 421, 2-(1-isopropyl-1H-benzo[d][1,2,3]triazol-5-yl)-7-methyl-benzo[d]oxazole]
CC(C)n1nnc2cc(-c3nc4c(Br)cccc4o3)ccc21 [Compound 428, 4-bromo-2-(1-isopropylbenzotriazol-5-yl)-1,3-benzoxazole]
Cc1occc1-c1noc(-c2ccc3c(c2)nnn3CC(C)(C)O)n1 [Compound 492, 2-methyl-1-{5-[3-(2-methylfuran-3-yl)-1,2,4-oxadiazol-5-yl]-1H-1,2,3-benzotriazol-1-yl}propan-2-ol]

same assay, conditions: inhibition of cAMP production; potency; read-out: hS1P1 CAMP pEC50 (converted)

EC50, > 316 nM:
Cc1ccc(-c2noc(-c3ccc4c(c3)nnn4C3CCCCC3)n2)cc1 [Compound 117, 1-cyclohexyl-5-[3-(4-methylphenyl)-1,2,4-oxadiazol-5-yl]-1H-1,2,3-benzotriazole]
COC(=O)NS(=O)(=O)n1c(=O)oc2cc(-c3nnc(-c4ccccc4OC)o3)ccc21 [Compound 342, methyl N-({6-[5-(2-methoxyphenyl)-1,3,4-oxadiazol-2-yl]-2-oxo-2,3-dihydro-1,3-benzoxazol-3-yl}sulfonyl)carbamate]
O=C1CC2(CCCC2)Oc2ccc(-c3nc(-c4ccncc4)no3)cc21 [Compound 176, 6-[3-(pyridin-4-yl)-1,2,4-oxadiazol-5-yl]-3,4-dihydrospiro[1-benzopyran-2,1′-cyclopentane]-4-one]
Cc1ccncc1-c1nc(-c2ccc3c(c2)nnn3C(C)C)no1 [Compound 100, 3-(1-isopropyl-1H-benzo[d][1,2,3]triazol-5-yl)-5-(4-methyl-pyridin-3-yl)-1,2,4-oxadiazole]
CC(C)n1nnc2cc(-c3noc(-c4ccccc4C#N)n3)ccc21 [Compound 279, 2-(3-(1-isopropyl-1H-benzo[d][1,2,3]triazol-5-yl)-1,2,4-oxadiazol-5-yl)benzonitrile]
Cc1cc(C)cc(-c2noc(-c3ccc4c(c3)nnn4C(C)C)n2)c1 [Compound 204, 5-[3-(3,5-dimethy-lphenyl)-1,2,4-oxadiazol-5-yl]-1-(propan-2-yl)-1H-1,2,3-benzotriazole]
c1cc(-c2noc(-c3ccc4c(c3)nnn4C3CC3)n2)ccn1 [Compound 295, 1-cyclopropyl-5-[3-(pyridin-4-yl)-1,2,4-oxadiazol-5-yl]-1H-1,2,3-benzotriazole]
CC(C)n1nnc2cc(-c3noc(C4CCOCC4)n3)ccc21 [Compound 89, 5-[5-(oxan-4-yl)-1,2,4-oxadiazol-3-yl]-1-(propan-2-yl)-1H-1,2,3-benzotriazole]
Cc1ccncc1-c1noc(-c2ccc3c(c2)nnn3C2CC2)n1 [Compound 94, 1-cyclopropyl-5-[3-(4-methylpyridin-3-yl)-1,2,4-oxadiazol-5-yl]-1H-1,2,3-benzotriazole]
CCC1(CC)CC(=O)c2cc(-c3nc(-c4ccc5[nH]cnc5c4)no3)ccc2O1 [Compound 211, 6-(3-(1H-benzo[d]imidazol-5-yl)-1,2,4-oxadiazol-5-yl)-2,2-diethylchroman-4-one]
CCC1(CC)CC(=O)c2cc(-c3nc(-c4ccc(OC)cc4)no3)ccc2O1 [Compound 65, 2,2-diethyl-6-(3-(4-methoxyphenyl)-1,2,4-oxadiazol-5-yl)chroman-4-one]
CC1(C)CCC2(CC1)CC(=O)c1cc(-c3nc(-c4cccnc4)no3)ccc1O2 [Compound 58, 4′,4′-dimethyl-6-[3-(pyridin-3-yl)-1,2,4-oxadiazol-5-yl]-3,4-dihydrospiro[1-benzopyran-2,1′-cyclohexane]-4-one]
CC1(C)CC(=O)c2cc(-c3nc(-c4ccncc4)no3)ccc2O1 [Compound 291, 2,2-dimethyl-6-[3-(pyridin-4-yl)-1,2,4-oxadiazol-5-yl]-3,4-dihydro-2H-1-benzopy ran-4-one]
COc1ccccc1-c1noc(-c2ccc3c(c2)nnn3C2CCOCC2)n1 [Compound 231, 5-[3-(2-methoxy-phenyl)-1,2,4-oxadiazol-5-yl]-1-(oxan-4-yl)-1H-1,2,3-benzotriazole]
CCC1(CC)CC(=O)c2cc(-c3nc(-c4ccc(NC)cc4)no3)ccc2O1 [Compound 153, 2,2-diethyl-6-(3-(4-(methylamino)phenyl)-1,2,4-oxadiazol-5-yl)chroman-4-one]
CCCn1nnc2cc(-c3nc(-c4cc(C)cc(C)c4)no3)ccc21 [Compound 76, 5-[3-(3,5-dimethyl-phenyl)-1,2,4-oxadiazol-5-yl]-1-propyl-1H-1,2,3-benzotriazole]
Cc1ncccc1-c1nc(-c2ccc3c(c2)nnn3C(C)C)no1 [Compound 194, 3-(1-isopropyl-1H-benzo[d][1,2,3]triazol-5-yl)-5-(2-methyl-pyridin-3-yl)-1,2,4-oxadiazole]

EC50, < 316 nM:
Clc1ncccc1-c1noc(-c2ccc3c(c2)nnn3C2CCCC2)n1 [Compound 198, 5-[3-(2-chloro-pyridin-3-yl)-1,2,4-oxadiazol-5-yl]-1-cyclopenty1-1H-1,2,3-benzotriazole]
COc1ccccc1-c1nc(-c2ccc3c(c2)nnn3C2CCCC2)no1 [Compound 120, 3-(1-cyclopentyl-1H-benzo[d][1,2,3]triazol-5-yl)-5-(2-methoxyphenyl)-1,2,4-oxadiazole]
CC(C)n1ncc2cc(-c3nc(-c4ccccc4O)no3)ccc21 [Compound 333, 2-(5-(1-isopropyl-1H-indazol-5-yl)-1,2,4-oxadiazol-3-yl)phenol]
Cc1ccccc1-c1noc(-c2ccc3c(cnn3C(C)C)c2)n1 [Compound 329, 5-(1-isopropyl-1H-indazol-5-yl)-3-(o-tolyl)-1,2,4-oxadiazole]
N#Cc1cc(-c2nc(-c3ccc4c(c3)CCC(=O)N4)no2)ccc1NCC1CC1 [Compound 302, 2-((cyclopropyl-methyl)amino)-5-(3-(2-oxo-1,2,3,4-tetrahydroquinolin-6-yl)-1,2,4-oxadiazol-5-yl)benzonitrile]
CCC1(CC)CC(=O)c2cc(-c3nc(-c4ccc(NS(C)(=O)=O)cc4)no3)ccc2O1 [Compound 262, N-(4-(5-(2,2-diethyl-4-oxochroman-6-yl)-l,2,4-oxadiazol-3-yl)phenyl)methane-sulfonamide]
CC(F)CNc1ccc(-c2nc(-c3ccc4c(c3)CCC(=O)N4)no2)cc1C#N (centres unmarked) [Compound 348, 2-[(2-fluoropropyl)amino]-5-[3-(2-oxo-1,2,3,4-tetrahydroquinolin-6-yl)-1,2,4-oxadiazol-5-yl]benzonitrile]
CC(C)n1nnc2cc(-c3nc(-c4ccccc4Br)co3)ccc21 [Compound 183, 5-[4-(2-bromophenyl)-1,3-oxazol-2-yl]-1-(propan-2-yl)-1H-1,2,3-benzotriazole]
C=CCNc1ccc(-c2nc(-c3ccc4[nH]cnc4c3)no2)cc1C#N [Compound 177, 5-(3-(1H-benzo[d]imidazol-5-yl)-1,2,4-oxadiazol-5-yl)-2-(allylamino)benzonitrile]
CC(C)n1ncc2cc(-c3nc(-c4ccccc4OC(F)(F)F)no3)ccc21 [Compound 331, 5-(1-isopropyl-1H-indazol-5-yl)-3-(2-(trifluoro-methoxy)phenyl)-1,2,4-oxadiazole]
CC(C)n1ncc2cc(-c3nc(-c4cccc5c4OCO5)no3)ccc21 [Compound 336, 3-(benzo[d][1,3]dioxol-4-yl)-5-(1-isopropyl-1H-indazol-5-yl)-1,2,4-oxadiazole]
CCC1(CC)CC(=O)c2cc(-c3nc(-c4ccnc(F)c4)no3)ccc2O1 [Compound 146, 2,2-diethyl-6-(3-(2-fluoropyridin-4-yl)-1,2,4-oxadiazol-5-yl)chroman-4-one]
CC(C)n1ncc2cc(-c3nc(-c4cccc5c4OCCC5)no3)ccc21 [Compound 337, 3-chroman-8-yl-5-(1-isopropylindazol-5-yl)-1,2,4-oxadiazole]
C=CCNc1ccc(-c2nc(-c3ccc4c(c3)CC(=O)N4)no2)cc1C#N [Compound 224, 2-(allylamino)-5-(3-(2-oxoindolin-5-yl)-1,2,4-oxadiazol-5-yl)benzonitrile]
